Values joined by “and” are separate entries in the source; they are usually repeats but may differ in a detail not shown here. Identical values can stand only once.
System: 168753-222-R-J1-PDC complex spheroid viability
Experiment: Anticancer human tumor 168753-222-R-J1-PDC patient-derived bladder carcinoma cell line growth inhibition [CLK]
Details: for viability, T/C: stronger effect = lower value
From the text: A high-throughput screen of multi-cell type tumor spheroids was designed to identify active combinations of […] and targeted small molecules. Complex spheroids include a stromal component modeled by human endothelial cells (HUVEC) and fibroblasts modeled by human mesenchymal stem cells (MSCs). The concentration ranges selected for each drug and investigational agent were based upon clinically achievable concentrations if the clinical Cmax of the agent was known.
Compounds. The drugs and investigational agents: cirtuvivint (SM08502; NSC835563), CC-671 (NSC850746), vemurafenib (NSC761431), tapotoclax (NSC804041), sotorasib (NSC818433), adagrasib (NSC831453), MRTX-1133 (NSC836407), BAY2416964 (NSC825713), copanlisib (NSC816437), inavolisib (NSC800729), abemaciclib (NSC768073), osimertinib (NSC779217), entinostat (NSC756642), eltanexor (KPT-8602, NSC794443), venetoclax (NSC766270), ceralasertib (NSC777638), bortezomib (NSC756655), olaparib (NSC753686), talazoparib (NSC767125), alisertib (NSC759677), peposertib (NSC802822), gemcitabine (NSC613327), 5-fluorouracil (NSC19893), SN-38 (NSC673596), oxaliplatin (NSC266046), paclitaxel (NSC125973), and doxorubicin (NSC123127), were obtained from the National Cancer Institute (NCI) Developmental Therapeutics Program Chemical Repository. The FDA-approved anticancer drug set is available from the Developmental Therapeutics Program at https://dtp.cancer.gov/organization/dscb/obtaining/available plates.htm. […] The stock solutions were prepared in dimethyl sulfoxide (DMSO, Sigma-Aldrich, St. Louis, MO, cat. D2650), except for the platinum complexes which were prepared in saline (Quality Biological, Gaithersburg, MD, cat. 114-055-101), at 800-fold the tested concentration and stored at -70 degrees C prior to their use. All drugs and investigational agents were tested over a range starting from a high concentration at or near the clinical Cmax and decreasing in half-log increments. If the clinical Cmax for an agent had not been determined, the highest concentration tested was 10 microM.
Cell Culture. All cells were maintained in an incubator at 37 degrees C and 5% CO2 with 95% humidity. The PDC lines were cultured according to standard operating procedures established by the NCI PDMR. Briefly, all PDCs were thawed and cultured in Matrigel-coated flasks prepared with a working solution of 1X Ham's F-12 nutrient mix, without supplementation (Invitrogen, Waltham, MA, cat. 11765054), 100 U/mL penicillin-streptomycin (Invitrogen, cat. 15140122), and 2.5% Matrigel (Corning Inc., Corning, NY, cat. 354248) for the first three passages. The 947758-054-R-J2-PDC line was cultured in 6B/Colon 1A media, which includes advanced DMEM/F-12 (Thermo Fisher Scientific, cat. 12634028), 10 mM HEPES (Thermo Fisher Scientific, cat. 15630080), 1X GlutaMAX supplement (Thermo Fisher Scientific, cat. 35050061), 0.1 mg/mL primocin (InvivoGen, cat. ant-pm-2), 10% defined fetal bovine serum, heat inactivated (HyClone Laboratories Inc., cat. SH30070.03HI), 1.25 mM N-Acetyl-L-cysteine (Sigma-Aldrich, cat. A9165), 10 mM nicotinamide (Sigma-Aldrich, cat. N0636), 1X B-27 supplement (Thermo Fisher Scientific, cat. 17504044), 1X N-2 supplement (Thermo Fisher Scientific, cat. 17502048), and 10 microM Y-27632 dihydrochloride (Tocris Bioscience, cat. 1254). The 876862-298-R-J1-PDC was cultured in 6E media, which includes all 6B/Colon 1A media components plus 50% L-WRN conditioned media (ATCC, cat. CRL-3276), 50 ng/mL recombinant human EGF recombinant protein (hEGF; Thermo Fisher Scientific, cat. PHG0311), 10 ng/mL recombinant human fibroblast growth factor 10 (hGFG-10; PeproTech, cat. 100-26), 1 ng/mL recombinant human fibroblast growth factor 2 (hFGF-2; PeproTech, cat. 100-18B), and 1 µM prostaglandin E2 (PGE2; Tocris, cat. 2296). The 227483-062-R1-J1-PDC line was cultured in Panc media, containing all 6E components except hFGF-2, with the addition of 500 nM SB-431542 (Selleckchem, cat. S1067) and 10 nM gastrin (Tocris, cat. 3006). […]

[1] = curve of first compound, second compound 0.0316 µM
[2] = curve of first compound, second compound 0.1 µM
[3] = curve of first compound, second compound 0.316 µM
[4] = curve of first compound, second compound 1 µM
[5] = curve of first compound, second compound 3.16 µM
[6] = curve of first compound, second compound 10 µM
[7] = second compound 0.0316 µM, first compound 0.0316 µM
[8] = second compound 0.0316 µM, first compound 0.1 µM
[9] = second compound 0.0316 µM, first compound 0.316 µM
[10] = second compound 0.0316 µM, first compound 1 µM
[11] = second compound 0.1 µM, first compound 0.0316 µM
[12] = second compound 0.1 µM, first compound 0.1 µM
[13] = second compound 0.1 µM, first compound 0.316 µM
[14] = second compound 0.1 µM, first compound 1 µM
[15] = second compound 0.316 µM, first compound 0.0316 µM
[16] = second compound 0.316 µM, first compound 0.1 µM
[17] = second compound 0.316 µM, first compound 0.316 µM
[18] = second compound 0.316 µM, first compound 1 µM
[19] = second compound 1 µM, first compound 0.0316 µM
[20] = second compound 1 µM, first compound 0.1 µM
[21] = second compound 1 µM, first compound 0.316 µM
[22] = second compound 1 µM, first compound 1 µM
[23] = second compound 3.16 µM, first compound 0.0316 µM
[24] = second compound 3.16 µM, first compound 0.1 µM
[25] = second compound 3.16 µM, first compound 0.316 µM
[26] = second compound 3.16 µM, first compound 1 µM
[27] = second compound 10 µM, first compound 0.0316 µM
[28] = second compound 10 µM, first compound 0.1 µM
[29] = second compound 10 µM, first compound 0.316 µM
[30] = second compound 10 µM, first compound 1 µM
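Note: viability measured after seven days of drug exposure.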
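Throughout, for viability, T/C: luminescence signal used as surrogate for viable cell amount; 100% = DMSO vehicle control wells.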

CC(CO)NC(=O)c1cc(-c2ccc(Cl)cc2)nn(-c2cnn(C)c2)c1=O (stereo not drawn) + CN1CCN(c2cc(C(=O)Nc3cc4cc(-c5cnn(C)c5)ccc4cn3)ccn2)CC1
IC50 [1]: > 10000 nM | IC50 [2]: 5220 nM | IC50 [3]: < 31.6 nM | IC50 [4]: < 31.6 nM | IC50 [5]: < 31.6 nM | IC50 [6]: < 31.6 nM | viability, T/C [7]: 98.7% | viability, T/C [8]: 130% | viability, T/C [9]: 64% | viability, T/C [10]: 112% | viability, T/C (second compound 0.0316 µM, first compound 3.16 µM): 117% | viability, T/C (second compound 0.0316 µM, first compound 10 µM): 88.2% | viability, T/C [11]: 87.2% | viability, T/C [12]: 81.8% | viability, T/C [13]: 64.1% | viability, T/C [14]: 73.3% | viability, T/C (second compound 0.1 µM, first compound 3.16 µM): 58.6% | viability, T/C (second compound 0.1 µM, first compound 10 µM): 39.6% | viability, T/C [15]: 19.4% | viability, T/C [16]: 13.6% | viability, T/C [17]: 16.8% | viability, T/C [18]: 13.8% | viability, T/C (second compound 0.316 µM, first compound 3.16 µM): 19.1% | viability, T/C (second compound 0.316 µM, first compound 10 µM): 13.8% | viability, T/C [19]: 0.44% | viability, T/C [20]: 0.4% | viability, T/C [21]: 0.31% | viability, T/C [22]: 0.55% | viability, T/C (second compound 1 µM, first compound 3.16 µM): 0.46% | viability, T/C (second compound 1 µM, first compound 10 µM): 3.13% | viability, T/C [23]: 0.2% | viability, T/C [24]: 0.16% | viability, T/C [25]: 2.4% | viability, T/C [26]: 0.15% | viability, T/C (second compound 3.16 µM, first compound 3.16 µM): 2.55% | viability, T/C (second compound 3.16 µM, first compound 10 µM): 0.21% | viability, T/C [27]: 0.26% | viability, T/C [28]: 0.45% | viability, T/C [29]: 0.61% | viability, T/C [30]: 0.27% | viability, T/C (second compound 10 µM, first compound 3.16 µM): 1.02% | viability, T/C (second compound 10 µM, first compound 10 µM): 2.24%

COc1c(OCCCN2CCOCC2)ccc2c3n(c(=NC(=O)c4cnc(N)nc4)nc12)CCN3 + CNC(=O)c1ccc(Nc2nc(OC3CCCC3)c3c(-c4ccc5nc(C)oc5c4)c[nH]c3n2)c(OC)c1
IC50 [1]: 12 nM | IC50 [2]: 13.1 nM | IC50 [3]: 5.16 nM | IC50 [4]: < 3.16 nM | IC50 [5]: < 3.16 nM | IC50 [6]: < 3.16 nM | viability, T/C (second compound 0.0316 µM, first compound 0.00316 µM): 96.5% | viability, T/C (second compound 0.0316 µM, first compound 0.01 µM): 56.4% | viability, T/C [7]: 17.8% | viability, T/C [8]: 13.7% | viability, T/C [9]: 8.52% | viability, T/C [10]: 1.96% | viability, T/C (second compound 0.1 µM, first compound 0.00316 µM): 87.3% | viability, T/C (second compound 0.1 µM, first compound 0.01 µM): 60.8% | viability, T/C [11]: 14.7% | viability, T/C [12]: 11.1% | viability, T/C [13]: 7.84% | viability, T/C [14]: 1.03% | viability, T/C (second compound 0.316 µM, first compound 0.00316 µM): 67.3% | viability, T/C (second compound 0.316 µM, first compound 0.01 µM): 25.6% | viability, T/C [15]: 12.7% | viability, T/C [16]: 7.32% | viability, T/C [17]: 4.55% | viability, T/C [18]: 0.36% | viability, T/C (second compound 1 µM, first compound 0.00316 µM): 25% | viability, T/C (second compound 1 µM, first compound 0.01 µM): 16.4% | viability, T/C [19]: 3.59% | viability, T/C [20]: 0.43% | viability, T/C [21]: 0.26% | viability, T/C [22]: 1.09% | viability, T/C (second compound 3.16 µM, first compound 0.00316 µM): 14.6% | viability, T/C (second compound 3.16 µM, first compound 0.01 µM): 12.3% | viability, T/C [23]: 2.46% | viability, T/C [24]: 0.34% | viability, T/C [25]: 2.13% | viability, T/C [26]: 1.79% | viability, T/C (second compound 10 µM, first compound 0.00316 µM): 12.6% | viability, T/C (second compound 10 µM, first compound 0.01 µM): 10.4% | viability, T/C [27]: 3.75% | viability, T/C [28]: 2.46% | viability, T/C [29]: 0.34% | viability, T/C [30]: 3.45%

CC1COCCN1c1cc(C2(S(C)(=N)=O)CC2)nc(-c2ccnc3[nH]ccc23)n1 (stereo not drawn)
viability, T/C (compound 0.0316 µM): 93.5% and 106% | viability, T/C (compound 0.1 µM): 67% and 101% | viability, T/C (compound 0.316 µM): 84.1% and 104% | viability, T/C (compound 1 µM): 75.9% and 102% | viability, T/C (compound 3.16 µM): 49.7% and 87.8% | viability, T/C (compound 10 µM): 26.7% and 56.4% | IC50 (curve of compound): 3110 nM and > 10000 nM

COc1cccc2c1C(=O)c1c(O)c3c(c(O)c1C2=O)CC(O)(C(=O)CO)CC3OC1CC(N)C(O)C(C)O1 (stereo not drawn)
viability, T/C (compound 0.0316 µM): 49.4% and 85.7% | viability, T/C (compound 0.1 µM): 38.7% and 47.7% | viability, T/C (compound 0.316 µM): 28.3% and 46.2% | viability, T/C (compound 1 µM): 7.17% and 21% | viability, T/C (compound 3.16 µM): 7.34% and 13.8% | viability, T/C (compound 10 µM): 0.22% and 0.15% | IC50 (curve of compound): < 31.6 nM and 159 nM
